{"source": "patent US5484773A", "about": "“Treatment of antibiotic associated diarrhea” (priority 1994, dated 1996)", "key": {"CDAD or PMC": {"test_system": "CDAD or PMC", "details": "cited from earlier work; for patients in whom diarrhea returns after discontinuing antibiotic treatment: after oral Metronidazole or Vancomycin therapy, ref. [15]; for therapy effective, share of patients who suffer from CDAD or PMC: oral Metronidazole or Vancomycin with removal of offending drug and fluid replacement"}, "C. difficile toxin A [1]": {"molecular_target": "T1, C. difficile toxin A (Clostridioides difficile, UniProt P16154)", "T1 construct": "Toxin A was isolated from a toxin producing strain of C. difficile; made in house; host or cells: Clostridium difficile ATCC 43255 (VPI strain 10463), native toxin from culture supernatant, not recombinant", "T1 sequence (P16154 whole entry, looked up)": "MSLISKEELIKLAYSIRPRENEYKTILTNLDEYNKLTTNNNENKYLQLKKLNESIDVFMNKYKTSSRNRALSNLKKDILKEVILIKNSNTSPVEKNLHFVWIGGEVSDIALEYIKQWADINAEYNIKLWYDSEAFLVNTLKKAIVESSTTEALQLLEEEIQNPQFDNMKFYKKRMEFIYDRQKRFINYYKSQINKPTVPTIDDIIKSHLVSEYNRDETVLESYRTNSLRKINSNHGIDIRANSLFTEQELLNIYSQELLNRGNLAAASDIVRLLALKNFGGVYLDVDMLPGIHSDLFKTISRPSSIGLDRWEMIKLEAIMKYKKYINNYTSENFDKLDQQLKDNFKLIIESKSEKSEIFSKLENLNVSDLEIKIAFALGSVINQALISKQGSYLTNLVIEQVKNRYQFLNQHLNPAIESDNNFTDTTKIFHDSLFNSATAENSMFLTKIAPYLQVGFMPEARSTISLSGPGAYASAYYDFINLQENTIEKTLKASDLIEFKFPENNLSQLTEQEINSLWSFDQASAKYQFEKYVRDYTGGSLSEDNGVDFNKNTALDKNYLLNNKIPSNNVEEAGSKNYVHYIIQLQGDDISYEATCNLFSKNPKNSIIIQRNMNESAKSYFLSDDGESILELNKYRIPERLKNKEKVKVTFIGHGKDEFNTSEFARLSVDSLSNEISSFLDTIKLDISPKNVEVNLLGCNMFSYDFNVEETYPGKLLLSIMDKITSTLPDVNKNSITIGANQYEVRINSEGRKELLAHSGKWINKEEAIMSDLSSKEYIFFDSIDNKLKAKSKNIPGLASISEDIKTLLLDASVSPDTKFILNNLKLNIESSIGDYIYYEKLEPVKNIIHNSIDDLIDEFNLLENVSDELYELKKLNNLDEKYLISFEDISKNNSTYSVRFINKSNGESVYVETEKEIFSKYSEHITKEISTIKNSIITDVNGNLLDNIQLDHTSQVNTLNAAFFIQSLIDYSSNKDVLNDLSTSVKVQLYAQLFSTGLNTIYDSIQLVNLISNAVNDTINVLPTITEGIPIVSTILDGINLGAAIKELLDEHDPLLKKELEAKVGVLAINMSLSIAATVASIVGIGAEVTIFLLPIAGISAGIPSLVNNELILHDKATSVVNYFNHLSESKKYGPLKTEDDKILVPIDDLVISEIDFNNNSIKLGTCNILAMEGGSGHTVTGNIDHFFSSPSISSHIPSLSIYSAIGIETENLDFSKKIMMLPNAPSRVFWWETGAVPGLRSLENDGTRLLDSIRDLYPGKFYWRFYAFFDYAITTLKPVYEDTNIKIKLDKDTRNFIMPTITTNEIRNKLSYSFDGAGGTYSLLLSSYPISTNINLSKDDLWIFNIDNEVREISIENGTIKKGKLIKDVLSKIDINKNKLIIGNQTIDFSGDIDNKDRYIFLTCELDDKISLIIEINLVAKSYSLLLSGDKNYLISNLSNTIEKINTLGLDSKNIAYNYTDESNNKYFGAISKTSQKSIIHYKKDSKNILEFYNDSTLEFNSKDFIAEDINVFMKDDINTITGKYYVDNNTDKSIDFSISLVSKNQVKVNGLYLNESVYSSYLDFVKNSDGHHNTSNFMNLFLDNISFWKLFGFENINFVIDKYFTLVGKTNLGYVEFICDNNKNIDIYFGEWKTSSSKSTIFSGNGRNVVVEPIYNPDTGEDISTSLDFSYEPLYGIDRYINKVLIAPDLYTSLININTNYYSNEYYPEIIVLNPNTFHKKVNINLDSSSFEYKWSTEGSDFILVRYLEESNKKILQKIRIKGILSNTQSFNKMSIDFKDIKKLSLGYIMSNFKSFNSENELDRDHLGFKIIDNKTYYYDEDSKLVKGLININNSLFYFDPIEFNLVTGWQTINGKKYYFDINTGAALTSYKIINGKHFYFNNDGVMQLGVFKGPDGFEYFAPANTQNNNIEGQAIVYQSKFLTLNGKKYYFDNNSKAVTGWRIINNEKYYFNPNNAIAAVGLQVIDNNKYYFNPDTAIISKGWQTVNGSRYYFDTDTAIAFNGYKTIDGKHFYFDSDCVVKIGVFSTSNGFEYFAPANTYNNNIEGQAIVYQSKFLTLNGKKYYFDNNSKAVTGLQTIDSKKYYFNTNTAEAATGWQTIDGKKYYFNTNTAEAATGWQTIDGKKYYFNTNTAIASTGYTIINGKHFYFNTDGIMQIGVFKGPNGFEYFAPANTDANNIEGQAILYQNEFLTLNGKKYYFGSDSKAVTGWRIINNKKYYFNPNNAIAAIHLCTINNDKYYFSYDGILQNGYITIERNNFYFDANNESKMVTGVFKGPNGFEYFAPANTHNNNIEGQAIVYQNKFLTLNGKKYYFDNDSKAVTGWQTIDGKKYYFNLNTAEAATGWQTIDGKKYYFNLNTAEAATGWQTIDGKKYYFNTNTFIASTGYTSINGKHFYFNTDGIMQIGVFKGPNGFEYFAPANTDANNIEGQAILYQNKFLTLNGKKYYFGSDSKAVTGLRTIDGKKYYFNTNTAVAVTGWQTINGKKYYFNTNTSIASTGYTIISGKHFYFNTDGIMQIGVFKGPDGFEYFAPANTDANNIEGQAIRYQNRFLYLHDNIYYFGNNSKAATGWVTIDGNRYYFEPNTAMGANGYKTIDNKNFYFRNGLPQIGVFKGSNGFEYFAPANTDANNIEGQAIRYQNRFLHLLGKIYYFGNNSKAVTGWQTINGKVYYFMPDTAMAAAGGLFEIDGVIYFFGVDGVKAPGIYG", "assay": "Screening: neutralization of purified toxin A hemagglutination activity by SYNSORBs (Example 1, FIG. 1)", "assay_type": "biochemical, Clostridium difficile", "procedure": "The amount of toxin A adsorption to SYNSORB was determined by assaying supernatants for reduction of endpoint titers in hemagglutination assays relative to controls without any added SYNSORB. […] SYNSORBs 2, 5, 104, 105, and 134 neutralized about 50% of toxin A activity.\nToxin A was isolated from a toxin producing strain of C. difficile (ATCC 43255, VPI strain 10463) using slight modifications of the method of Sullivan et al..\nC. difficile was grown in 2.3 liter of brain heart infusion broth (BHIB) in anaerobic jars for 72 hours at 37° C. The crude culture was centrifuged at 5,000× g for 20 minutes to sediment the bacteria. The resulting culture supernatant was carefully removed and solid ammonium sulfate (897 g) was added to make 60% saturation. […]\nFresh rabbit erythrocytes were washed once in phosphate buffered saline (PBS) and resuspended at a concentration of 4% (v/v) in cold PBS. […] After incubating the plate for 4 hours at 4° C., the hemagglutination titer was visually assessed. […]\nAfter incubation, the SYNSORB was allowed to settle to the bottom of the tubes and the supernatants were carefully removed. Serial 2-fold dilutions of the supernatants were prepared and the hemagglutination endpoint determined as described above.\nThe extent of reduction in the endpoint in the presence of SYNSORB was determined by comparing the endpoint with that of controls in which SYNSORB was not added. […]"}, "C. difficile toxin A [2]": {"molecular_target": "T1, C. difficile toxin A", "assay": "Determination of optimal binding conditions (amount and incubation time) for toxin A neutralization, hemagglutination (Example 2, FIGS. 2 and 3)", "assay_type": "biochemical, Clostridium difficile", "details": "about 20 mg SYNSORB per 1 ml toxin A solution (20 mg/ml); 2 hours, 37° C.; FIG. 2", "procedure": "(§1) Fresh rabbit erythrocytes were washed once in phosphate buffered saline (PBS) and resuspended at a concentration of 4% (v/v) in cold PBS. Serial 2-fold dilutions (50 μl) of toxin A-containing solutions were made in cold PBS in U-shaped microtiter wells. An equal volume (50 μl) of rabbit erythrocytes was then added to each well and the microtiter plate was mixed gently. After incubating the plate for 4 hours at 4° C., the hemagglutination titer was visually assessed.\nThe amount of SYNSORBS 52 and 90 required for maximal toxin A neutralization was determined by adding 1 ml of a purified toxin A solution to pre-weighed amounts of each SYNSORB in 1.5 ml microcentrifuge tubes. SYNSORB 52 samples were tested using 12.8, 21.6 and 43.3 mg amounts of SYNSORB 52; SYNSORB 90 samples were tested using 12.9, 19.2 and 42.3 mg amounts of SYNSORB 90. Samples were incubated for 2 hours at 37° C. on an end-over-end rotator. […]\nThe amount of neutralization in each sample was determined by comparing the endpoint titers of hemagglutination assays from samples with and without SYNSORB.\nThe length of incubation time required for optimal neutralization was determined by incubating microcentrifuge tubes containing 1 ml of purified toxin A solution and 20 mg of either SYNSORB 52 or SYNSORB 90. […]\nThe degree of neutralization at each incubation period was determined as described above."}, "C. difficile toxin A [3]": {"molecular_target": "T1, C. difficile toxin A", "assay": "Determination of binding affinity of SYNSORBs to toxin A, hemagglutination titer reduction (Example 4, FIG. 4)", "parameters": "species or system Clostridium difficile", "details": "rabbit erythrocytes", "procedure": "For the purposes of this invention, oligosaccharide sequences attached to solid supports which bind toxin A means those compositions which reduce endpoint titers from hemagglutination assays by at least 50%.\nas §1\nTo assess the binding affinity of various SYNSORBs to toxin A, each SYNSORB was combined with toxin A as described in Example 1. Endpoint titers from hemagglutination assays using rabbit erythocytes were determined as described previously. […] Those SYNSORBs which reduced titers by greater than 50% were deemed to bind toxin A."}}}
{"molecule": "Cc1ncc([N+](=O)[O-])n1CCO", "note": "[Metronidazole]", "values": [{"measurement": "patients in whom diarrhea returns after discontinuing antibiotic treatment", "setting": "CDAD or PMC", "value": "about 20%"}, {"measurement": "therapy effective, share of patients who suffer from CDAD or PMC", "setting": "CDAD or PMC", "value": "about 80%"}]}
{"molecule": "CN[C@H](CC(C)C)C(=O)N[C@H]1C(=O)N[C@@H](CC(N)=O)C(=O)N[C@H]2C(=O)N[C@H]3C(=O)N[C@H](C(=O)N[C@H](C(=O)O)c4cc(O)cc(O)c4-c4cc3ccc4O)[C@H](O)c3ccc(c(Cl)c3)Oc3cc2cc(c3O[C@@H]2O[C@H](CO)[C@@H](O)[C@H](O)[C@H]2O[C@H]2C[C@](C)(N)[C@H](O)[C@H](C)O2)Oc2ccc(cc2Cl)[C@H]1O", "note": "[Vancomycin]", "values": [{"measurement": "patients in whom diarrhea returns after discontinuing antibiotic treatment", "setting": "CDAD or PMC", "value": "about 20%"}, {"measurement": "therapy effective, share of patients who suffer from CDAD or PMC", "setting": "CDAD or PMC", "value": "about 80%"}]}
{"molecule": "αGal(1-3)βGal(1-3)βGlcNAc [SYNSORB 134]", "values": [{"measurement": "removal/neutralization of toxin A activity (reduction of endpoint titers in hemagglutination assays)", "setting": "C. difficile toxin A [1]; purified toxin A 0.5 ml, 10.1 to 17.5 mg SYNSORB, room temperature, 2 hours, rabbit erythrocytes", "value": "about 50%"}]}
{"molecule": "αGal(1-3)βGal(1-4)βGlc [SYNSORB 90]", "values": [{"measurement": "neutralization of toxin A activity (in words)", "setting": "C. difficile toxin A [1]; purified toxin A, hemagglutination vs controls without SYNSORB", "value": "as effective at neutralizing toxin A activity"}, {"measurement": "neutralization of toxin A activity", "setting": "C. difficile toxin A [2]", "value": "more than 75%"}]}
{"molecule": "αGal(1-4)βGal(1-4)βGlc [SYNSORB 68]", "values": [{"measurement": "binding to toxin A (criterion: titer reduced by greater than 50%)", "setting": "C. difficile toxin A [3]", "value": "bind toxin A"}]}
{"molecule": "αNeuAc(2-6)βGal(1-4)βGlc [SYNSORB 89]", "values": [{"measurement": "binding to toxin A (criterion: titer reduced by greater than 50%)", "setting": "C. difficile toxin A [3]", "value": "appear not to bind toxin A"}]}
{"molecule": "βGal(1-4)βGlcNAc [SYNSORB 34]", "values": [{"measurement": "binding to toxin A (criterion: titer reduced by greater than 50%)", "setting": "C. difficile toxin A [3]", "value": "appear not to bind toxin A"}]}
